Measurements as given in PubChem BioAssay AID330 (DTP/NCI, 2004).
“And” between values parts separate entries of the source, which are not always exact repeats. Equal entries are not always repeated. Toxic doses and inconclusive results are not listed. Rule for the calls: active = survival T/C of 150% or more; inactive = T/C below 125% in these data.

Tested on: P388 leukemia ip, CD2F1 mice, survival T/C
Experiment: NCI In Vivo Anticancer Drug Screen. Data for tumor model P388 Leukemia (intraperitoneal) in CD2F1 (CDF1) mice
Conditions: endpoint: median survival time, higher = longer survival
Summary of the method: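 Mice carrying the transplanted tumor received test compound or vehicle. Survival was recorded in each group, and the value is the treated-group measurement divided by that of the vehicle-treated control group.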

[1] = dose: 100.0 mg/kg/injection, schedule: Q01DX001 (ip), vehicle: Klucel (hydroxypropylcellulose) (HPC)
[2] = dose: 200.0 mg/kg/injection, schedule: Q01DX001 (ip), vehicle: Klucel (hydroxypropylcellulose) (HPC)
[3] = dose: 400.0 mg/kg/injection, schedule: Q01DX001 (ip), vehicle: Klucel (hydroxypropylcellulose) (HPC)
[4] = dose: 100.0 mg/kg/injection, schedule: Q01DX009 (ip), vehicle: saline with Tween-80
[5] = dose: 200.0 mg/kg/injection, schedule: Q01DX009 (ip), vehicle: saline with Tween-80
[6] = dose: 50.0 mg/kg/injection, schedule: Q01DX005 (ip), vehicle: Klucel (hydroxypropylcellulose) (HPC)
[7] = dose: 100.0 mg/kg/injection, schedule: Q01DX005 (ip), vehicle: Klucel (hydroxypropylcellulose) (HPC)
[8] = dose: 200.0 mg/kg/injection, schedule: Q01DX005 (ip), vehicle: Klucel (hydroxypropylcellulose) (HPC)
[9] = dose: 50.0 mg/kg/injection, schedule: Q01DX009 (ip), vehicle: Klucel (hydroxypropylcellulose) (HPC)
[10] = dose: 100.0 mg/kg/injection, schedule: Q01DX009 (ip), vehicle: Klucel (hydroxypropylcellulose) (HPC)
[11] = dose: 200.0 mg/kg/injection, schedule: Q01DX009 (ip), vehicle: Klucel (hydroxypropylcellulose) (HPC)
[12] = dose: 60.0 mg/kg/injection, schedule: Q01DX005 (ip), vehicle: saline with Tween-80
[13] = dose: 120.0 mg/kg/injection, schedule: Q01DX005 (ip), vehicle: saline with Tween-80
[14] = dose: 240.0 mg/kg/injection, schedule: Q01DX005 (ip), vehicle: saline with Tween-80
[15] = dose: 50.0 mg/kg/injection, schedule: Q01DX009 (ip), vehicle: saline with Tween-80

Measured: T/C

O=C1N[C@@H](Cc2ccccc2)C(=O)N2CSC[C@H]12
inactive: [1] 99 % of control | [2] 102 % of control | [3] 102 % of control

COc1nc2ccccc2nc1OC
inactive: [4] 97 % of control | [5] 100 % of control | dose: 400.0 mg/kg/injection, schedule: Q01DX009 (ip), vehicle: saline with Tween-80 97 % of control

C=C(F)F
inactive: [6] 95 % of control | [7] 101 % of control | [8] 103 % of control

N=C(N)c1ccc2oc(CCc3cc4ccc(C(=N)N)cc4[nH]3)cc2c1
inactive: dose: 3.12 mg/kg/injection, schedule: Q04DX003 (ip), vehicle: suspension in saline 100 % of control | dose: 6.25 mg/kg/injection, schedule: Q04DX003 (ip), vehicle: suspension in saline 113 % of control | dose: 12.5 mg/kg/injection, schedule: Q04DX003 (ip), vehicle: suspension in saline 110 % of control

Cc1ccc(NC(=S)N2CCCC2)cc1C
inactive: [9] 100 % of control and 101 % of control | [10] 109 % of control | [11] 91 % of control and 98 % of control

NC(N)=N/N=C/COc1cccnc1
inactive: [12] 97 % of control | [13] 100 % of control | [14] 97 % of control

O=C(O)c1cc(=O)cc(-c2ccccc2)o1
inactive: [6] 98 % of control | [7] 97 % of control | [8] 101 % of control

CN(C)c1c2c(=O)n(C)c(=O)n(C)c2nc2cccc[n+]12
inactive: [6] 95 % of control | [7] 106 % of control | [8] 104 % of control

CCOC(=O)C(C(=O)OCC)C1(O)C2CCCC21 (stereo unspecified)
inactive: dose: 100.0 mg/kg/injection, schedule: Q04DX002 (ip), vehicle: saline with Tween-80 101 % of control | dose: 200.0 mg/kg/injection, schedule: Q04DX002 (ip), vehicle: saline with Tween-80 101 % of control | dose: 400.0 mg/kg/injection, schedule: Q04DX002 (ip), vehicle: saline with Tween-80 104 % of control

CN1C2C=CC1c1c(C3=NC(C)(C)CO3)cccc12 (stereo unspecified)
inactive: dose: 50.0 mg/kg/injection, schedule: Q01DX005 (ip), vehicle: saline 98 % of control | dose: 100.0 mg/kg/injection, schedule: Q01DX005 (ip), vehicle: saline 103 % of control

CCC(=[Se])N(CC)CC
inactive: dose: 0.39 mg/kg/injection, schedule: Q01DX009 (ip), vehicle: Klucel (hydroxypropylcellulose) (HPC) 98 % of control | dose: 0.78 mg/kg/injection, schedule: Q01DX009 (ip), vehicle: Klucel (hydroxypropylcellulose) (HPC) 102 % of control | dose: 1.56 mg/kg/injection, schedule: Q01DX009 (ip), vehicle: Klucel (hydroxypropylcellulose) (HPC) 99 % of control | dose: 6.25 mg/kg/injection, schedule: Q01DX009 (ip), vehicle: Klucel (hydroxypropylcellulose) (HPC) 100 % of control

Cc1[nH]nc(N)c1C(N)=O
inactive: [12] 100 % of control | [13] 99 % of control | [14] 86 % of control

NS(=O)(=O)c1c[nH]c(=O)[nH]c1=O
inactive: [9] 105 % of control | [10] 93 % of control | [11] 97 % of control | dose: 400.0 mg/kg/injection, schedule: Q01DX009 (ip), vehicle: Klucel (hydroxypropylcellulose) (HPC) 91 % of control

COc1ccc(C(OC(C)(C)C)c2cc(C(C)(C)C)cc(C(C)(C)C)c2O)cc1 (stereo unspecified)
inactive: dose: 50.0 mg/kg/injection, schedule: Q01DX005 (ip), vehicle: distilled water + alcohol 101 % of control | dose: 100.0 mg/kg/injection, schedule: Q01DX005 (ip), vehicle: distilled water + alcohol 104 % of control | dose: 200.0 mg/kg/injection, schedule: Q01DX005 (ip), vehicle: distilled water + alcohol 97 % of control

CSCCC(NCC(=O)Nc1ccc(S(=O)(=O)c2ccc(NC(=O)CNC(CCSC)C(=O)O)cc2)cc1)C(=O)O (stereo unspecified)
inactive: [6] 100 % of control | [7] 101 % of control | [8] 101 % of control

S=P(c1ccccc1)(N1CC1)N1CC1
inactive: dose: 25.0 mg/kg/injection, schedule: Q01DX009 (ip), vehicle: saline with Tween-80 109 % of control | dose: 25.0 mg/kg/injection, schedule: Q04DX003 (ip), vehicle: saline with Tween-80 104 % of control | [15] 104 % of control | dose: 50.0 mg/kg/injection, schedule: Q04DX003 (ip), vehicle: saline with Tween-80 104 % of control | [4] 86 % of control | dose: 100.0 mg/kg/injection, schedule: Q04DX003 (ip), vehicle: saline with Tween-80 100 % of control and 113 % of control

O=C(/C=C/c1ccc(Cl)cc1)/C=C/c1ccc(Cl)cc1
inactive: [15] 91 % of control | [4] 86 % of control | [5] 93 % of control

CCCC/C(=N\NC(N)=NC)c1ccccc1
inactive: dose: 25.0 mg/kg/injection, schedule: Q04DX002 (ip), vehicle: saline with Tween-80 99 % of control | dose: 50.0 mg/kg/injection, schedule: Q04DX002 (ip), vehicle: saline with Tween-80 100 % of control

CCCCCCCCCCCCCCCCCC(=O)OCCCCCCCCCCCCC
inactive: dose: 100.0 mg/kg/injection, schedule: Q01DX001 (ip), vehicle: other 95 % of control | dose: 200.0 mg/kg/injection, schedule: Q01DX001 (ip), vehicle: other 100 % of control | dose: 400.0 mg/kg/injection, schedule: Q01DX001 (ip), vehicle: other 95 % of control

O=c1cccc2c3ccccc3ccn12
inactive: dose: 60.0 mg/kg/injection, schedule: Q01DX005 (ip), vehicle: Klucel (hydroxypropylcellulose) (HPC) 91 % of control | dose: 120.0 mg/kg/injection, schedule: Q01DX005 (ip), vehicle: Klucel (hydroxypropylcellulose) (HPC) 95 % of control

Cc1cc2nnnn2c2ccccc12
inactive: dose: 50.0 mg/kg/injection, schedule: Q01DX009 (ip), vehicle: saline 96 % of control | dose: 100.0 mg/kg/injection, schedule: Q01DX009 (ip), vehicle: saline 99 % of control | dose: 200.0 mg/kg/injection, schedule: Q01DX009 (ip), vehicle: saline 95 % of control

CC(=O)N1CCc2cc(C(C)C)ccc21
inactive: dose: 25.0 mg/kg/injection, schedule: Q01DX009 (ip), vehicle: other 97 % of control | dose: 50.0 mg/kg/injection, schedule: Q01DX009 (ip), vehicle: other 97 % of control | dose: 100.0 mg/kg/injection, schedule: Q01DX009 (ip), vehicle: other 91 % of control | dose: 200.0 mg/kg/injection, schedule: Q01DX009 (ip), vehicle: other 103 % of control | dose: 400.0 mg/kg/injection, schedule: Q01DX009 (ip), vehicle: other 88 % of control

COc1cc(-c2coc3cc(O)ccc3c2=O)c(O)c(OC)c1OC
inactive: [1] 101 % of control | [2] 101 % of control | [3] 102 % of control

NC(CSC1c2ccccc2-c2ccccc21)C(=O)O (stereo unspecified)
inactive: [12] 90 % of control | [13] 98 % of control | [14] 92 % of control

COc1cccc(N=Nc2c(-c3ccccc3)nn(C(N)=S)c2C)c1
inactive: dose: 50.0 mg/kg/injection, schedule: Q01DX005 (ip), vehicle: saline with Tween-80 100 % of control | dose: 100.0 mg/kg/injection, schedule: Q01DX005 (ip), vehicle: saline with Tween-80 89 % of control | dose: 200.0 mg/kg/injection, schedule: Q01DX005 (ip), vehicle: saline with Tween-80 91 % of control

CC(C)(c1ccc(OCOC(=O)NN)cc1)c1ccc(OCOC(=O)NN)cc1
inactive: [15] 95 % of control | [4] 102 % of control

COC1=CC(=O)c2c(O)cc(OC)c(O)c2C1=O
inactive: dose: 1.25 mg/kg/injection, schedule: Q01DX009 (ip), vehicle: saline + alcohol 104 % of control | dose: 1.25 mg/kg/injection, schedule: Q01DX009 (ip), vehicle: saline with Tween-80 117 % of control | dose: 2.5 mg/kg/injection, schedule: Q01DX009 (ip), vehicle: saline + alcohol 104 % of control | dose: 2.5 mg/kg/injection, schedule: Q01DX009 (ip), vehicle: saline with Tween-80 115 % of control | dose: 5.0 mg/kg/injection, schedule: Q01DX009 (ip), vehicle: saline + alcohol 104 % of control | dose: 5.0 mg/kg/injection, schedule: Q01DX009 (ip), vehicle: saline with Tween-80 110 % of control | dose: 10.0 mg/kg/injection, schedule: Q01DX009 (ip), vehicle: saline + alcohol 106 % of control | dose: 10.0 mg/kg/injection, schedule: Q01DX009 (ip), vehicle: saline with Tween-80 110 % of control | dose: 20.0 mg/kg/injection, schedule: Q01DX009 (ip), vehicle: saline + alcohol 106 % of control | dose: 20.0 mg/kg/injection, schedule: Q01DX009 (ip), vehicle: saline with Tween-80 106 % of control
